# From article PMC11796312, “Multifunctional, Fluorene‐Based Modulator of Cholinergic and GABAergic Neurotransmission as a Novel Drug Candidate for Palliative Treatment of Alzheimer's Disease” (Angewandte Chemie (International Ed. in English), 2024)
# Read-outs that look alike come from different tables or passages of the source.
# Tests used:
# [1] = system: SIM-A9 cells; test: Intracellular O2•-, DHE probe, SIM-A9; type: cell-based, mouse
# [2] = Cell viability, PrestoBlue (neurotoxicity); type: cell-based; conditions: mouse, 24 h, read-out: viability, neurotoxicity X [%]
# Description: (§1) Mouse Hippocampal Neuronal (HT-22) were cultured in Dulbecco's modified Eagle's Medium - high glucose (DMEM, Glutamx Thermo Fisher) supplemented with 10% inactivated fetal bovine serum heat (Thermo Fisher), 100 IU/ml penicillin (Sigma Aldrich) and 100 µg/ml streptomycin (Merck). Cells were cultured in flasks (area 75 cm2, Nunc), and incubated at 37°C, 5% CO2. For the measurement of cell viability cells were placed in a 96-well culture plate (2x10^4 cells per well, Falcon). Before the tests, cells were grown for 24 hours in the incubator (37°C, 5% CO2).
# (§2) Preparation of stock solutions of tested compounds
# (§3) Stock solutions were prepared in the concentration of 10 mM for test and reference compounds. Minimum 1 mg of each tested compound was weighed and dissolved in appropriate volume of dimethyl sulfoxide. Serial dilutions were prepared in DMSO and then the diluted compounds were transferred to PBS. Before assays eventual precipitation or opalescence was checked. All experiments were performed in duplicates, in three independent experiments. Cell viability was measured after 24 hours of incubation with tested cell line.
# (§4) Cell viability was evaluated using the Presto Blue reagent (Thermo Fisher), according to the manufacturer procedures. Following 24 hours of incubation with the tested molecule, PrestoBlue reagent was added to a microplate well in an amount equal to one tenth of the remaining medium volume. The resulting mixture was incubated for 15 minutes at 37°C, and the fluorescence intensity (EX 530; EM 580 nm) was measured in the plate reader POLARstar Omega, (BMG Labtech). The results (viability values) are provided as a percentage of live cells with respect to DMSO (control sample).
# (§5) Viability values were calculated as a percentage of live cells with respect to the control sample (DMSO). The negative control was medium without cells. IC 50 was determined by […]
# (§6) nonlinear regression analysis using GraphPad Prism 9.0 software. All values are expressed as […]
# (§7) Table S10. The viability of cells. neurotoxicity immuntoxicity
# (§8) The results (viability values) are provided as a percentage of live cells with respect to DMSO (control sample)
# (§9) Table S11. The viability of cells.
# [3] = system: Mouse Hippocampal Neuronal (HT-22); test: Cell viability, PrestoBlue (neurotoxicity); type: cell-based; conditions: Mus musculus, HT-22, 24 h
# Description: as §1, §2, §3, §4, §5, §6, §7, §8, §9
# [4] = system: SIM-A9 cells; test: Intracellular RONS, DCFH-DA probe, SIM-A9; type: cell-based, mouse
smiles,measurement,setting,value
O[C@H](CNCC1CC1)[C@H](Cc1ccccc1)NC1c2ccccc2-c2ccccc21 [Compound 6],increase in intracellular O2•-,[1]; all concentrations and times,no significant increase
same,decrease of O2•- level,"[1]; conc. = IC50, 24 h",26%
same,"viability at 24 h, 0.1 µM","[2]; HT-22, 0.1 µM",99%
same,"viability at 24 h, 1 µM","[2]; HT-22, 1 µM",100%
same,"viability at 24 h, 10 µM","[2]; HT-22, 10 µM",99%
same,"viability at 24 h, 50 µM","[2]; HT-22, 50 µM",9.5%
same,"viability at 24 h, 100 µM","[2]; HT-22, 100 µM, vs DMSO",1.7%
same,IC50,[3]; read-out: NEUROTOXICITY IC50,23.1 µM
same,IC50,[3]; read-out: NEUROTOXICITY pIC (converted),22.9 µM
same,increase in intracellular RONS,"[4]; IC50, ½ IC50, ¼ IC50, 1, 4, 24 h",no significant increase
same,"intracellular RONS, times lower","[4]; conc. = IC50, 24 h",1.63 fold
